Results as given in US20210113715A1, “TARGETED NANOPARTICLES FOR DIAGNOSING, DETECTING AND TREATING CANCER” (CEDARS-SINAI MEDICAL CENTER, priority 2018, published 2021).
“Also recorded” adds a separate entry of the source.

Legend:
[1] = test system: OATP transporter (U87 cells); assay: Inhibition of HMC-FH uptake by pre-incubation with inhibitors; format: cell-based; conditions: fluorescence microscopy and flow cytometry
Text: Next, we tested the ability of HMC-FH to target and internalize into various GBM cancer cell lines.

[2] = test system: PC3 prostate cancer cells; assay: Transwell cell migration, PC3; format: cell-based; conditions: PC3, 24 h at 37° C.
Experimental: After incubation, nonmigratory cells and media were washed from transwells, and those cells that migrated to the bottom of the filters were, fixed and stained and imaged using a fluorescence Microscope. […] Quantification of the average number of cells per image that have migrated (FIG. 8C).

[3] = test system: intracranial U87 GBM tumors; assay: Survival studies (Kaplan-Meier) of mice with intracranial U87 tumors; format: in vivo; conditions: treated 14 days after tumor implantation, 3 umol drug/kg i.v. twice a week for three weeks, n=5
Experimental: A dose of 3 umol drug/kg, 22 mM Fe (FH) was administered i.v via tail vein injection twice a week for […].
(§1) A dose of 3 umol drug/kg, 22 mM Fe (FH) was administered i.v. via tail vein injection twice a week for three weeks.
as §1
HMC-FH(PXL) and HMC-FH(BFA) increase the survival of mice with GBM tumors. In these experiments, we injected mice (n=5) with intracranial U87 GBM tumors with HMC-FH encapsulated with either paclitaxel (PTX) or docetaxel (DXT). As control, we injected either PBS or the corresponding drug along at equal concentrations. In initial studies, treatment started “late”, 14 days after tumor implantation. […] In additional studies, treatment was started earlier, 5 days after injection, to find out if an early treatment would improve survival. Impressive results were obtained by injecting HMC-FH(PXL), 5 days after tumor implantation.
In initial animal studies using BFA and HMC-FH(BFA), we injected mice (n=5) with intracranial U87 GBM tumors with either BFA (dissolved in DMSO) or HMC-FH(BFA) in saline. In these studies, treatment started “late”, 14 days after tumor implantation. […] The ability of BFA to cross the BBB has not been studied or reported, to our knowledge. However, due to its poor solubility, it is advantageous to encapsulate BFA in HMC-FH.

TMZ-resistant U87R cells = assay: Transwell cell migration, U87R; format: cell-based
Experimental: After incubation, nonmigratory cells and media were washed from transwells, and those cells that migrated to the bottom of the filters were, fixed and stained and imaged using a fluorescence Microscope (Keyence BZ-X7 00). Representative images (5 fields) were taken of treatment (2 uM of each-BFA, HMC-FH and HMC-FH (BFA, DMSO) for quantification.

[4] = test system: LNCaP prostate cancer cells; assay: Transwell cell migration, LNCaP; format: cell-based; conditions: 24 h at 37° C.
[5] = test system: intracranial U87MG tumors; conditions: mouse, in vivo
Text: Mouse brains were extracted from the mouse skull, and tumors visualized and resected from the healthy brain while recording using SIRIS.

[6] = test system: human intracranial U87MG tumors; assay: HMC-FH(PTX) treatment of nude mice with intracranial U87MG tumors; format: in vivo; conditions: six treatments, 1 mg HMC, 3 mg PTX and 4 mgFe/kg; treatment period 40 days after tumor inoculation
Experimental: Brain MRI images of treated mice (FIG. 46A). […] Corresponding mice body weight measurements (FIG. 46D).
The HMC-FH(PTX) was next used to treat nude mice with human intracranial U87MG tumors. […] It is not until after the treatment period that tumors start developing in the HMC-FH(PTX) treated mice (FIG. 46B).

O=CC[C@@H](O)[C@H](O)[C@H](O)CO [2-deoxyglucose]
effect of pre-incubation on HMC-FH uptake [1]: do not block the internalization

COC(=O)N[C@H](C(=O)N[C@@H](Cc1ccccc1)[C@@H](O)CN(Cc1ccc(-c2ccccn2)cc1)NC(=O)[C@@H](NC(=O)OC)C(C)(C)C)C(C)(C)C [Atazanir]
effect of pre-incubation on HMC-FH uptake [1]: uptake and cell associated fluorescence was reduced; also recorded: inhibits HMC-FH internalization

C[C@H]1CCC/C=C/[C@@H]2C[C@H](O)C[C@H]2[C@H](O)/C=C/C(=O)O1 [BFA, Brefeldin A]
cell migration [2]: decreased migration
survival, BFA formulations [3]: significantly longer than in the control mice; also recorded: enhanced mice survival
cell migration (TMZ-resistant U87R cells; U87R, 2 uM, 24 h): decreased migration
cell migration (TMZ-resistant U87R cells; printed as U87 cells): decrease cell migration

CC(=O)O[C@@]12CO[C@@H]1C[C@H](O)[C@@]1(C)C(=O)[C@H](O)C3=C(C)[C@@H](OC(=O)[C@H](O)[C@@H](NC(=O)OC(C)(C)C)c4ccccc4)C[C@@](O)([C@@H](OC(=O)c4ccccc4)[C@H]21)C3(C)C [DXT, docetaxel]
cell migration [4]: decreased migration
cell migration [2]: decreased migration

CC1(C)C(/C=C/C=C/C=C/C=C2\N(CCCCS(=O)(=O)[O-])c3ccc4ccccc4c3C2(C)C)=[N+](CCCCS(=O)(=O)[O-])c2ccc3ccccc3c21.[Na+] [ICG]
fluorescent labeling / localization to tumor [5]: does not show tumor localization

CC(=O)O[C@H]1C(=O)[C@@]2(C)[C@H]([C@H](OC(=O)c3ccccc3)[C@]3(O)C[C@H](OC(=O)[C@H](O)[C@@H](NC(=O)c4ccccc4)c4ccccc4)C(C)=C1C3(C)C)[C@]1(OC(C)=O)CO[C@@H]1C[C@@H]2O [PTX, paclitaxel]
tumor growth / tumor detection by MRI or histopathology [6]: developed visible tumor
